From article PMC11089505, “Structural Elucidation and Antiviral Activity of Covalent Cathepsin L Inhibitors” (Journal of Medicinal Chemistry, 2024)
Several values for one entry are separate records, joined by “and”; a condition that tells them apart may be missing. Identical values can stand only once. Like-named read-outs stand apart in the source and are kept apart here. Peptide text beside a SMILES is read from it. * marks the point of attachment. Cbz = O=C(OCc1ccccc1)*

Columns and labels:
CatL [1] = target: T1, CatL (Homo sapiens, UniProt P07711, T223A); assay: NanoDSF, thermal stability of CatL; type: binding
T1 construct: made in house; host or cells: Komagataella pastoris strain GS115
T1 sequence (P07711 114-333 T223A): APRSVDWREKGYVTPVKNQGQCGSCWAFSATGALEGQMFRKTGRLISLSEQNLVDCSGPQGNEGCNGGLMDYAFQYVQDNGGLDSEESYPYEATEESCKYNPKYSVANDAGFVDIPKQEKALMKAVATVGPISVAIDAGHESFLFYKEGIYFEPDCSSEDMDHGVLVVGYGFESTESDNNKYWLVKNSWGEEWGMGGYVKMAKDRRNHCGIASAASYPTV

SARS-CoV-2 Mpro = SARS-CoV-2 Mpro (Severe acute respiratory syndrome coronavirus 2, UniProt P0DTD1); type: binding; conditions: for ΔTm (for Mpro), 2:1 compound to protein mixing ratio: 8 µM Mpro, pH 7.5, 2% DMSO; for 2:1, Tm average (Mpro): 2:1 compound to protein
CatL [2] = target: T1, CatL; assay: CatL inhibition assay (Ki), substrate Z-RR-AMC; type: biochemical
Experimental: Experiments were performed in a solution of 50 mM sodium acetate, pH 4.0, 50 mM NaCl, 0.1% PEG 6000, and 5 mM DTT. Distinct assays with epoxide inhibitors at pH 6.0 were performed in 50 mM sodium phosphate buffer, 50 mM NaCl, 5 mM DTT, 0.1% PEG 6000, adjusted to pH 6.0.
M1000 pro plate reader (Tecan), the fluorescent peptide substrate Z-RR-AMC, and excitation and emission wavelengths of 370 and 460 nm, respectively.
At first, the inhibitor concentration span was optimized for each inhibitor and the assay buffer. For this initial screening, CatL (5 nM) was mixed with different concentrations of inhibitors (1 nM–50 μM) to determine the range of their inhibition. […] Reaction data were fitted to the […] in GraphPad Prism 9 software: Y = bottom + (top – bottom)/(1 + 10^∧((log IC50 – X) × HillSlope)); X is the log of dose or concentration, Y is the response (fluorescence signal), decreasing as X increases, top and bottom are the plateaus in the same units as Y, log IC50 same log units as X, HillSlope is the slope factor or called the Hill slope.

[3] = Cell viability assay (CellTiter-Blue); conditions: African green monkey
[4] = 5 µM CatL, pH 5.0, 2% DMSO, 20:1

CC(C)(C)OC(=O)Nc1cccn([C@@H](CC2CC2)C(=O)N[C@@H](C[C@@H]2CCNC2=O)C(=O)C(=O)NCc2ccccc2)c1=O [13b, tert-Butyl N-[1-[(2S)-1-[[(2S)-4-(benzylamino)-3,4-dioxo-1-[(3S)-2-oxopyrrolidin-3-yl]butan-2-yl]amino]-3-cyclopropyl-1-oxopropan-2-yl]-2-oxopyridin-3-yl]carbamate]
2:1, Tm average (CatL) (CatL [1]): 68.7 °C | 20:1, Tm average (CatL) (CatL [1]): 76.7 °C | ΔTm (for CatL), 2:1 compound to protein mixing ratio (CatL [1]; pH 5): 5,6 ± 0,1 °C and 5.6 °C | ΔTm (for CatL), 20:1 compound to protein mixing ratio (CatL [1]; pH 5): 13,6 ± 0,1 °C and 13.6 °C | ΔTm (for Mpro), 2:1 compound to protein mixing ratio (SARS-CoV-2 Mpro): 15,7 ± 0,1 °C and 15.7 °C | 2:1, Tm average (Mpro) (SARS-CoV-2 Mpro): 70.3 °C | Residual activity (Vi/V0) (CatL [2]; 13b 31.346 nM): 0.9675 and 0.9627 and 0.6897 and 0.9692 and 0.9864 and 0.9669 | Residual activity (Vi/V0) (CatL [2]; 13b 52.243 nM): 0.8888 and 0.9182 and 0.9209 and 0.8812 and 0.9125 | remaining activity at 0.052243 µM (CatL [2]; 13b 52.243 nM, read-out: Residual activity (Vi/V0)): 90.6% | Residual activity (Vi/V0) (CatL [2]; 13b 87.071 nM): 0.8265 and 0.8739 and 0.8771 and 0.8407 and 0.8552 | remaining activity at 0.087071 µM (CatL [2]; 13b 87.071 nM, read-out: Residual activity (Vi/V0)): 84.2% | Residual activity (Vi/V0) (CatL [2]; 13b 145.119 nM): 0.7626 and 0.6965 and 0.7661 and 0.7352 and 0.7663 | remaining activity at 0.145119 µM (CatL [2]; 13b 145.119 nM, read-out: Residual activity (Vi/V0)): 77.4% | Residual activity (Vi/V0) (CatL [2]; 13b 241.865 nM): 0.6661 and 0.7001 and 0.6736 and 0.645 and 0.6598 | Residual activity (Vi/V0) (CatL [2]; 13b 403.108 nM): 0.5626 and 0.5615 and 0.5111 and 0.5683 and 0.5779 | remaining activity at 0.403108 µM (CatL [2]; 13b 403.108 nM, read-out: Residual activity (Vi/V0)): 56.2% | Residual activity (Vi/V0) (CatL [2]; 13b 671.846 nM): 0.4836 and 0.4354 and 0.4683 and 0.4708 and 0.465 | remaining activity at 0.671846 µM (CatL [2]; 13b 671.846 nM, read-out: Residual activity (Vi/V0)): 47.5% | Residual activity (Vi/V0) (CatL [2]; 13b 1119.744 nM): 0.4051 and 0.4054 and 0.4004 and 0.3916 and 0.3989 | remaining activity at 1.11974 µM (CatL [2]; 13b 1119.744 nM, read-out: Residual activity (Vi/V0)): 38.3% | Residual activity (Vi/V0) (CatL [2]; 13b 1866.240 nM): 0.3283 and 0.3165 and 0.3193 and 0.3153 and 0.3192 | remaining activity at 1.86624 µM (CatL [2]; 13b 1866.240 nM, read-out: Residual activity (Vi/V0)): 32.5% | Residual activity (Vi/V0) (CatL [2]; 13b 3110.400 nM): 0.258 and 0.2535 and 0.24 and 0.2503 and 0.2489 | remaining activity at 3.1104 µM (CatL [2]; 13b 3110.400 nM, read-out: Residual activity (Vi/V0)): 24.7% | Residual activity (Vi/V0) (CatL [2]; 13b 5184.000 nM): 0.1828 and 0.1618 and 0.1725 and 0.1795 and 0.1597 | Residual activity (Vi/V0) (CatL [2]; 13b 8640.000 nM): 0.1228 and 0.1221 and 0.1079 and 0.1237 and 0.1244 | remaining activity at 8.64 µM (CatL [2]; 13b 8640.000 nM, read-out: Residual activity (Vi/V0)): 12.4% | Residual activity (Vi/V0) (CatL [2]; 13b 24000.000 nM): 0.04988 and 0.04656 and 0.04753 and 0.05569 and 0.04454 | remaining activity at 24 µM (CatL [2]; 13b 24000.000 nM, read-out: Residual activity (Vi/V0)): 4.42% | Ki (CatL [2]; CatL, Z-RR-AMC, pH 4.0, 37 °C, read-out: Ki): 293 nM

CC(C)(C)OC(=O)NCC=O [BOCA, tert-Butyl N-2-oxoethylcarbamate]
ΔTm (for CatL), 20:1 compound to protein mixing ratio (CatL [1]; [4]): 4,4 ± 0,4 °C and 4.4 °C | 2:1, Tm average (CatL) (CatL [1]; 2:1 compound to protein): 62.8 °C | 20:1, Tm average (CatL) (CatL [1]; 20:1 compound to protein): 67.5 °C | ΔTm [K] for CatL, 2:1 ratio (CatL [1]; Table S1, 2:1 ratio): -0.3 ± 0.1 K | ΔTm (for Mpro), 2:1 compound to protein mixing ratio (SARS-CoV-2 Mpro): -0,3 ± 0,1 °C | ΔTm (for Mpro), 2:1 compound to protein mixing ratio (SARS-CoV-2 Mpro; listed as N-BOCAAA): -0.3 °C | 2:1, Tm average (Mpro) (SARS-CoV-2 Mpro): 54.7 °C

CC(C)[C@H](NC(=O)OCc1ccccc1)C(=O)N[C@H](C=O)Cc1ccccc1 [CI-III, N-Cbz-Val-Phe-aldehyde] (Cbz-Val-Phe-aldehyde)
2:1, Tm average (CatL) (CatL [1]; 2:1 compound to protein): 75.2 °C | 20:1, Tm average (CatL) (CatL [1]; 20:1 compound to protein): 81.2 °C | 2:1, Tm average (Mpro) (SARS-CoV-2 Mpro): 54.5 °C | remaining activity at 0.000282 µM (CatL [2]; read-out: Residual activity (Vi/V0), CI-III 0.282 nM): 60.4% | remaining activity at 0.000404 µM (CatL [2]; read-out: Residual activity (Vi/V0), CI-III 0.404 nM): 45.4% | remaining activity at 0.000576 µM (CatL [2]; read-out: Residual activity (Vi/V0), CI-III 0.576 nM): 33.4% | remaining activity at 0.000824 µM (CatL [2]; read-out: Residual activity (Vi/V0), CI-III 0.824 nM): 23.1% | remaining activity at 0.001176 µM (CatL [2]; read-out: Residual activity (Vi/V0), CI-III 1.176 nM): 16.3% | remaining activity at 0.001681 µM (CatL [2]; read-out: Residual activity (Vi/V0), CI-III 1.681 nM): 10.8% | remaining activity at 0.002401 µM (CatL [2]; read-out: Residual activity (Vi/V0), CI-III 2.401 nM): 6.67% | remaining activity at 0.00343 µM (CatL [2]; read-out: Residual activity (Vi/V0), CI-III 3.430 nM): 4.1%

CC(C)[C@H](NC(=O)OCc1ccccc1)C(=O)N[C@H](C=O)Cc1ccccc1 [CIII] (Cbz-Val-Phe-aldehyde)
viability at 48 h, 1e-05 µM [3]: 95.8% | viability at 48 h, 0.0001 µM [3]: 95.4% | viability at 48 h, 0.001 µM [3]: 94.2% | viability at 48 h, 0.01 µM [3]: 95.3% | viability at 48 h, 0.1 µM [3]: 96% | viability at 48 h, 1 µM [3]: 98.9% | viability at 48 h, 10 µM [3]: 100%

CC(C)C[C@@H](C=O)NC(=O)[C@@H](NS(=O)(=O)c1ccc(F)cc1)C(C)C [CIVI]
viability at 48 h, 1e-05 µM [3]: 95.9% | viability at 48 h, 0.0001 µM [3]: 96.7% | viability at 48 h, 0.001 µM [3]: 93.8% | viability at 48 h, 0.01 µM [3]: 95.9% | viability at 48 h, 0.1 µM [3]: 95.1% | viability at 48 h, 1 µM [3]: 98.8% | viability at 48 h, 10 µM [3]: 98.3%

CCCC(NC(=O)C(CC(C)C)NC(=O)OCc1ccccc1)C(=O)C(=O)NCc1ccccn1 (stereo not shown) [CIXII]
viability at 48 h, 1e-05 µM [3]: 98.9% | viability at 48 h, 0.0001 µM [3]: 98.8% | viability at 48 h, 0.001 µM [3]: 98.3% | viability at 48 h, 0.01 µM [3]: 100% | viability at 48 h, 0.1 µM [3]: 98.8% | viability at 48 h, 1 µM [3]: 103% | viability at 48 h, 10 µM [3]: 106%

CC[C@@H](C)[C@H](NS(=O)(=O)c1cccc2ccccc12)C(=O)N[C@H](C=O)Cc1c[nH]c2ccccc12 [CLIIV]
viability at 48 h, 1e-05 µM [3]: 98.8% | viability at 48 h, 0.0001 µM [3]: 101% | viability at 48 h, 0.001 µM [3]: 98% | viability at 48 h, 0.01 µM [3]: 100% | viability at 48 h, 0.1 µM [3]: 98.7% | viability at 48 h, 1 µM [3]: 102% | viability at 48 h, 10 µM [3]: 101%

CN(C)C(=O)COC(=O)Cc1ccc(OC(=O)c2ccc(NC(=N)N)cc2)cc1 [Camostat]
ΔTm (for CatL), 20:1 compound to protein mixing ratio (CatL [1]; [4]): -0.2 °C | 20:1, Tm average (CatL) (CatL [1]; 20:1 compound to protein): 62.9 °C | ΔTm (for Mpro), 2:1 compound to protein mixing ratio (SARS-CoV-2 Mpro): -0.4 °C | 2:1, Tm average (Mpro) (SARS-CoV-2 Mpro): 54.6 °C

CCOC(=O)[C@H]1O[C@@H]1C(=O)N[C@@H](CC(C)C)C(=O)NCCC(C)C [E-64d, Ethyl (2S,3S)-3-[[(2S)-4-methyl-1-(3-methylbutylamino)-1-oxopentan-2-yl]carbamoyl]oxirane-2-carboxylate]
ΔTm (for CatL), 2:1 compound to protein mixing ratio (CatL [1]; 5 µM CatL, pH 5.0, 2% DMSO, 2:1): 4,5 ± 0,1 °C and 4.5 °C | ΔTm (for CatL), 20:1 compound to protein mixing ratio (CatL [1]; [4]): 11,7 ± 0,4 °C and 11.7 °C | 2:1, Tm average (CatL) (CatL [1]; 2:1 compound to protein): 67.6 °C | 20:1, Tm average (CatL) (CatL [1]; 20:1 compound to protein): 74.8 °C | ΔTm [K] for CatL, 2:1 ratio (CatL [1]; Table S1, 2:1 ratio): 4.5 ± 0.1 K | ΔTm (for Mpro), 2:1 compound to protein mixing ratio (SARS-CoV-2 Mpro): -0,3 ± 0,3 °C | ΔTm (for Mpro), 2:1 compound to protein mixing ratio (SARS-CoV-2 Mpro; listed as E-64d/Aloxistatin): -0.3 °C | 2:1, Tm average (Mpro) (SARS-CoV-2 Mpro): 54.7 °C

CC(=O)N[C@@H](CC(C)C)C(=O)N[C@@H](CC(C)C)C(=O)N[C@H](C=O)CCCNC(=N)N [Leupeptin]
ΔTm (for Mpro), 2:1 compound to protein mixing ratio (SARS-CoV-2 Mpro): 1,2 ± 0,1 °C and 1.2 °C | 2:1, Tm average (Mpro) (SARS-CoV-2 Mpro): 56.2 °C

Cc1ccc(S(=O)(=O)N[C@@H](Cc2ccccc2)C(=O)CCl)cc1 [TPCK, N-α-Tosyl-L-phenylalanyl chloromethyl ketone]
2:1, Tm average (CatL) (CatL [1]): 67.8 °C | ΔTm [K] for CatL, 2:1 ratio (CatL [1]): 4.7 ± 0.1 K | ΔTm (for CatL), 2:1 compound to protein mixing ratio (CatL [1]; pH 5): 4,7 ± 0,1 °C and 4.7 °C | ΔTm (for CatL), 20:1 compound to protein mixing ratio (CatL [1]; pH 5): 7,0 ± 0,1 °C and 7 °C
